# Measurements: ChEMBL document CHEMBL3769338, “Tricyclic phenothiazine and phenoselenazine derivatives as potential multi-targeting agents to treat Alzheimer's disease” (Medchemcomm, 2015)
# Target: Acetylcholinesterase (Homo sapiens, UniProt P22303)
# Experiment: Inhibition of human AChE using acetylthiocholine iodide as substrate preincubated for 5 mins followed by substrate addition measured after 60 to 300 sec by Ellman's method
# Conditions: not given
# Sequence of Acetylcholinesterase (P22303 whole entry): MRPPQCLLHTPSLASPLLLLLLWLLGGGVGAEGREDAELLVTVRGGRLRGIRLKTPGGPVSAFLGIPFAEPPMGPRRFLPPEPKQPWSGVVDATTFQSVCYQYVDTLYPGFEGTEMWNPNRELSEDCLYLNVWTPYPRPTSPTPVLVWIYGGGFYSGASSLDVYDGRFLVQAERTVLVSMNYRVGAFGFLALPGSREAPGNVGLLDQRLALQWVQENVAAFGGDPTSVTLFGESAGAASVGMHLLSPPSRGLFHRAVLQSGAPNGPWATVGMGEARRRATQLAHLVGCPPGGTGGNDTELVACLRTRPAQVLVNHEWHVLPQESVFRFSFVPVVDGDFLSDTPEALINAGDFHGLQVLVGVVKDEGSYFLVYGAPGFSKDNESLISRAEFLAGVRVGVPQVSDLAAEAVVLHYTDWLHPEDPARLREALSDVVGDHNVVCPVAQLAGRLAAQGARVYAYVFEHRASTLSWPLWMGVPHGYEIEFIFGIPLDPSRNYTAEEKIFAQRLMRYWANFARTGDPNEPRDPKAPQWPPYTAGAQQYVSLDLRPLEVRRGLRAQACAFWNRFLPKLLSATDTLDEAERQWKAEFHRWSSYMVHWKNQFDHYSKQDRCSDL
row,SMILES,IC50
1,O=C(CCc1ccccc1)N1c2ccccc2[Se]c2ccc(Cl)cc21,6.3 µM
2,COc1ccc(C(=O)N2c3ccccc3[Se]c3ccccc32)cc1,4.6 µM
3,O=C(c1ccccc1)N1c2ccccc2Sc2ccc(Cl)cc21,9.9 µM
4,COc1cccc(C(=O)N2c3ccccc3Sc3ccccc32)c1,6.2 µM
5,O=C(Cc1ccccc1)N1c2ccccc2Sc2ccc(Cl)cc21,7.5 µM
6,O=C(CCc1ccccc1)N1c2ccccc2Sc2ccccc21,7.1 µM
7,O=C(Cc1ccccc1)N1c2ccccc2Sc2ccccc21,7.4 µM
8,O=C(CCc1ccccc1)N1c2ccccc2Sc2ccc(Cl)cc21,7.9 µM
9,COc1ccc(C(=O)N2c3ccccc3[Se]c3ccc(Cl)cc32)cc1,5.8 µM
10,COc1ccc(C(=O)N2c3ccccc3Sc3ccccc32)cc1,6.3 µM
11,COc1cccc(C(=O)N2c3ccccc3[Se]c3ccccc32)c1,6.2 µM
12,O=C(Cc1ccccc1)N1c2ccccc2[Se]c2ccc(Cl)cc21,6.5 µM
13,O=C(CCc1ccccc1)N1c2ccccc2[Se]c2ccccc21,6.7 µM
14,O=C(Cc1ccccc1)N1c2ccccc2[Se]c2ccccc21,6.4 µM
15,COc1cccc(C(=O)N2c3ccccc3Sc3ccc(Cl)cc32)c1,4.6 µM

# Test system: not listed separately
# Experiment: Antioxidant activity assessed as DPPH free radical scavenging activity at 50 uM incubated for 60 mins in dark relative to control
# Assay type: physicochemical
# Conditions: 1 h
row,inhibition (INH),SMILES
1,99.2%,Cc1c(C)c2c(c(C)c1O)CCC(C)(C(=O)O)O2 (stereo unspecified) [TROLOX]

# Target: Cholinesterase (Homo sapiens, UniProt P06276)
# Sequence (P06276 whole entry): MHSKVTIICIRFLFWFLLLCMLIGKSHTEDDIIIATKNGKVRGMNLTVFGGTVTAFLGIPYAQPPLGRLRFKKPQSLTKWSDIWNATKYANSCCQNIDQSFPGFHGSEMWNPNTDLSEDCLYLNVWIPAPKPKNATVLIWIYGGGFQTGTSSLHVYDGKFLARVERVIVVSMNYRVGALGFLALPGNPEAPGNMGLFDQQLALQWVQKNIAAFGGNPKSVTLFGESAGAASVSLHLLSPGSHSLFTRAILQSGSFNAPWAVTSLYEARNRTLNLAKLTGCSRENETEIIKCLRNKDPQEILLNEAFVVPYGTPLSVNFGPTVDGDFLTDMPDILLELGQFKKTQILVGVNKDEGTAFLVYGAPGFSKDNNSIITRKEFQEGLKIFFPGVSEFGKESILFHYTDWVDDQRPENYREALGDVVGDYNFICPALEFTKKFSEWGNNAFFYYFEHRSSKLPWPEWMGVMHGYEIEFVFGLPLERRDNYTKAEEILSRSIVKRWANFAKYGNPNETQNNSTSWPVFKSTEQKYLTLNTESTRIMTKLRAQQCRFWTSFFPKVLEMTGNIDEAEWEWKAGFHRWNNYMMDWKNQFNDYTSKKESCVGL
# Conditions: not given
row,SMILES,IC50
1,O=C(CCc1ccccc1)N1c2ccccc2[Se]c2ccc(Cl)cc21,40 µM
2,COc1ccc(C(=O)N2c3ccccc3[Se]c3ccccc32)cc1,11.1 µM
3,O=C(c1ccccc1)N1c2ccccc2Sc2ccc(Cl)cc21,9.3 µM
4,COc1cccc(C(=O)N2c3ccccc3Sc3ccccc32)c1,25.5 µM
5,O=C(Cc1ccccc1)N1c2ccccc2Sc2ccc(Cl)cc21,3.6 µM
6,O=C(CCc1ccccc1)N1c2ccccc2Sc2ccccc21,51 µM
7,O=C(Cc1ccccc1)N1c2ccccc2Sc2ccccc21,38.3 µM
8,O=C(CCc1ccccc1)N1c2ccccc2Sc2ccc(Cl)cc21,5 µM
9,COc1ccc(C(=O)N2c3ccccc3[Se]c3ccc(Cl)cc32)cc1,4.9 µM
10,COc1ccc(C(=O)N2c3ccccc3Sc3ccccc32)cc1,53 µM
11,COc1cccc(C(=O)N2c3ccccc3[Se]c3ccccc32)c1,9.6 µM
12,O=C(Cc1ccccc1)N1c2ccccc2[Se]c2ccc(Cl)cc21,5 µM
13,O=C(CCc1ccccc1)N1c2ccccc2[Se]c2ccccc21,38 µM
14,O=C(Cc1ccccc1)N1c2ccccc2[Se]c2ccccc21,11 µM
15,COc1cccc(C(=O)N2c3ccccc3Sc3ccc(Cl)cc32)c1,30.8 µM
